Experiments:
[1] = Test Example 1: conversion of compound 2A into activated form in monkey serum; assay type: in vitro ADME; settings: for compound 2A (measured values, %): monkey serum, 50 μM, 37° C.
Description: (§1) The percentages of compound 2A produced in Example 2 being converted into an activated form in sera of humans, mice, monkeys, and dogs were determined. The activated form is in a rapid equilibrium between the lactone form and the carboxylate form, which were quantified separately.
(§2) Compound 2A was incubated at 37° C. at a concentration of 50 μM in sera of humans, mice, monkeys, and dogs. Incubation was terminated at a given time (0, 30, 60, 120, and 360 minutes), and the samples were analyzed by HPLC after deproteinization treatments.
(§3) Conditions for the HPLC analysis are as follows: • HPLC conditions • Column: Develosil C30-UG-3, 3 μm, 50×4.6 mm I.D • Column Temperature: constant temperature at approximately 25° C. • Mobile phase: A: 10 mM phosphate buffer (pH4.7) • B: acetonitrile • /B (min): 90/10(0)→90/10(0.4)→40/60(6)→2/98(8)→90/10(9)→90/10(15)
(§4) Flow rate: 1.0 mL/min • Detection: photodiode array detector, detection wavelength 350 nm • Amount injected: 30 μL
(§5) Generally, camptothecins in solution are in a rapid equilibrium between a structure in which the carbonyl at position 3 forms a 6-membered cyclic ester with the oxygen at position 2, and its open-ring structure. The lactone form refers to the former condition and the carboxylate form refers to the latter condition.

[2] = Test Example 5: conversion of compound 2A into activated form in human sera; assay type: in vitro ADME; settings: for compound 2A (measured values, %): Test Example 5, human sera, 50 μM, 37° C.
Description: (§6) The percentages of compound 2A produced in Example 2 being converted into an activated form in sera of humans, rats, mice, monkeys, and dogs were determined. The activated form is in a rapid equilibrium between the lactone form and the carboxylate form, which were quantified separately.
(§7) Compound 2A was incubated at 37° C. at a concentration of 50 μM in sera of humans, mice, rats, monkeys, and dogs. Incubation was terminated at a given time (0, 30, 60, 120, and 360 minutes), and the samples were analyzed by HPLC after deproteinization treatments.
(§8) Conditions for the HPLC analysis are as follows: • HPLC conditions • Column: Develosil C30-UG-3, 3 μm, 35×4.6 mm I.D • Column Temperature: constant temperature at approximately 25° C. • Mobile phase: A: 10 mM phosphate buffer (pH4.7) • B: acetonitrile • /B (min): 90/10(0)→90/10(0.4)→40/60(6)→2/98(8)→90/10(9)→90/10(15) • Flow rate: 1.0 mL/min • Detection: photodiode array detector, detection wavelength 350 nm • Amount injected: 30 μL
as §5

[3] = Test Example 5: conversion of compound 2A into activated form in mouse sera; assay type: in vitro ADME; settings: for compound 2A (measured values, %): Test Example 5, mouse sera, 50 μM, 37° C.
Description: as §6, §7, §8, §5

[4] = Test Example 5: conversion of compound 2A into activated form in dog sera; assay type: in vitro ADME; settings: for compound 2A (measured values, %): Test Example 5, dog sera, 50 μM, 37° C.
Description: as §6, §7, §8, §5

[5] = test system: human colon cancer cell line HCT116; assay: Test Example 4: antitumor effect in HCT116 tumor-bearing nude mice; assay type: in vivo, BALB/c nude mice; settings: once per week for three weeks
Description: Antitumor effects were determined for representative examples of the group of compounds of the present invention. Tumor-bearing mice were generated by subcutaneous transplantation of human colon cancer cell line HCT116 obtained from American Type Culture Collection (Virginia, USA) into the right flank of BALB/c nude mice purchased from Charles River Japan, and used for determination of antitumor effects.
After a one-week quarantine period, the purchased nude mice were subjected to subcutaneous transplantation of 5×10^6 HCT116 cells at their right flank. Mice with a tumor size reaching 200 mm^3 or so were subjected to the experiment.
The compounds were dissolved in 1 mM citric bufferes saline, pH 4, and administered intravenously. The administration was carried out once per week for three weeks, for a total of three administrations. The antitumor effect was determined as tumor growth inhibition (TGI) using the following equation. Tumor growth inhibition (TGI) (%)={(1−mean tumor volume change in the drug-treated group/mean tumor volume change in the control group)×100} The results are shown in Table 6.

[6] = Test Example 1: conversion of compound 2A into activated form in dog serum; assay type: in vitro ADME; settings: for compound 2A (measured values, %): dog serum, 50 μM, 37° C.
Description: as §1, §2, §3, §4, §5

[7] = Test Example 1: conversion of compound 2A into activated form in human serum; assay type: in vitro ADME; settings: for compound 2A (measured values, %): human serum, 50 μM, 37° C.
Description: as §1, §2, §3, §4, §5

[8] = Test Example 3: solubility in distilled water; assay type: physicochemical; settings: distilled water; read-out: Solubility in distilled water
Excerpt: The solubility of the water-soluble prodrugs obtained in the Examples (compounds 1A to 8A) in distilled water was compared to the solubility of (9S)-9-ethyl-9-hydroxy-1-pentyl-1H,12H-pyrano[3″,4″:6′,7′]indolizino[1′,2′:6,5]pyrido[4,3,2-de]quinazoline-10,13 (9H,15H)-dione (representative compound in Patent document 2: reference compound 1).

[9] = Test Example 5: conversion of compound 2A into activated form in rat sera; assay type: in vitro ADME; settings: for compound 2A (measured values, %): Test Example 5, rat sera, 50 μM, 37° C.
Description: as §6, §7, §8, §5

[10] = Test Example 1: conversion of compound 2A into activated form in mouse serum; assay type: in vitro ADME; settings: for compound 2A (measured values, %): mouse serum, 50 μM, 37° C.
Description: as §1, §2, §3, §4, §5

CCCCCN1C=Nc2cccc3nc4c(c1c23)Cn1c-4cc2c(c1=O)COC(=O)[C@@]2(CC)OC(=O)CN(C)C(=O)CN.Cl [Compound 2A, (9S)-9-Ethyl-9-(glycyl-sarcosyloxy)-1-pentyl-1H,12H-pyrano[3″,4″:6′,7′]indolizino[1′,2′:6,5]pyrido[4,3,2-de]quinazoline-10,13(9H,15H)-dione hydrochloride]
conversion to the lactone form (in words) ([1]; monkey sera, Test Example 1): quickly converted to the lactone form
compound 2A (measured values, %) ([1]; incubation 0 minutes): 0%
compound 2A (measured values, %) ([1]; incubation 30 minutes): 0%
compound 2A (measured values, %) ([1]; incubation 60 minutes): 0%
compound 2A (measured values, %) ([1]; incubation 120 minutes): 0%
compound 2A (measured values, %) ([1]; incubation 360 minutes): 0%
compound 2A (measured values, %) ([2]; incubation 0 minutes): 0%
compound 2A (measured values, %) ([2]; incubation 30 minutes): 0%
compound 2A (measured values, %) ([2]; incubation 60 minutes): 0%
compound 2A (measured values, %) ([2]; incubation 120 minutes): 0%
compound 2A (measured values, %) ([2]; incubation 360 minutes): 0%
conversion to the lactone form (in words) ([2]; human sera, Test Example 5): quickly converted to the lactone form
compound 2A (measured values, %) ([3]; incubation 0 minutes): 0%
compound 2A (measured values, %) ([3]; incubation 30 minutes): 0%
compound 2A (measured values, %) ([3]; incubation 60 minutes): 0%
compound 2A (measured values, %) ([3]; incubation 120 minutes): 0%
compound 2A (measured values, %) ([3]; incubation 360 minutes): 0%
conversion to the lactone form (in words) ([3]; mouse sera, Test Example 5): quickly converted to the lactone form
compound 2A (measured values, %) ([4]; incubation 0 minutes): 0%
compound 2A (measured values, %) ([4]; incubation 30 minutes): 0%
compound 2A (measured values, %) ([4]; incubation 60 minutes): 0%
compound 2A (measured values, %) ([4]; incubation 120 minutes): 0%
compound 2A (measured values, %) ([4]; incubation 360 minutes): 0%
conversion to the lactone form (in words) ([4]; dog sera, Test Example 5): quickly converted to the lactone form
TGI (%) on Day 21 ([5]; 0.9 mg/kg intravenously): 45%
TGI (%) on Day 21 ([5]; 1.9 mg/kg intravenously): 52%
TGI (%) on Day 21 ([5]; 3.75 mg/kg intravenously): 72%
TGI (%) on Day 21 ([5]; 7.5 mg/kg intravenously): 74%
TGI (%) on Day 21 ([5]; 15 mg/kg intravenously): 85%
TGI (%) on Day 21 ([5]; 30 mg/kg intravenously): 97%
TGI (%) on Day 21 ([5]; 60 mg/kg intravenously): 110%
conversion to the lactone form (in words) ([6]; dog sera, Test Example 1): quickly converted to the lactone form
compound 2A (measured values, %) ([6]; incubation 0 minutes): 0%
compound 2A (measured values, %) ([6]; incubation 30 minutes): 0%
compound 2A (measured values, %) ([6]; incubation 60 minutes): 0%
compound 2A (measured values, %) ([6]; incubation 120 minutes): 0%
compound 2A (measured values, %) ([6]; incubation 360 minutes): 0%
conversion to the lactone form (in words) ([7]; human sera, Test Example 1): quickly converted to the lactone form
compound 2A (measured values, %) ([7]; incubation 0 minutes): 0%
compound 2A (measured values, %) ([7]; incubation 30 minutes): 0%
compound 2A (measured values, %) ([7]; incubation 60 minutes): 0%
compound 2A (measured values, %) ([7]; incubation 120 minutes): 0%
compound 2A (measured values, %) ([7]; incubation 360 minutes): 0%
solubility [8]: > 10000 µg/mL
compound 2A (measured values, %) ([9]; incubation 0 minutes): 0%
compound 2A (measured values, %) ([9]; incubation 30 minutes): 0%
compound 2A (measured values, %) ([9]; incubation 60 minutes): 0%
compound 2A (measured values, %) ([9]; incubation 120 minutes): 0%
compound 2A (measured values, %) ([9]; incubation 360 minutes): 0%
conversion to the lactone form (in words) ([9]; rat sera, Test Example 5): quickly converted to the lactone form
conversion to the lactone form (in words) ([10]; mouse sera, Test Example 1): quickly converted to the lactone form
compound 2A (measured values, %) ([10]; incubation 0 minutes): 0%
compound 2A (measured values, %) ([10]; incubation 30 minutes): 0%
compound 2A (measured values, %) ([10]; incubation 60 minutes): 0%
compound 2A (measured values, %) ([10]; incubation 120 minutes): 0%
compound 2A (measured values, %) ([10]; incubation 360 minutes): 0%

— patent publication US7910593B2, “Water-soluble prodrugs” (Chugai Seiyaku Kabushiki Kaisha, priority 2004, dated 2011)
